Source: US6680340B2, “Anti-hypercholesterolemic drug combination” (Merck & Co., Inc., priority 2000, dated 2004)

Columns and labels:
Serum cholesterol = Serum cholesterol lowering in dogs dosed 15 days with fenofibrate, CGS23425 or the combination; type: in vivo
Description: Dogs were administered 50 mg/kg/day fenofibrate alone, 10 μg/kg/day CGS23425 alone, or the combination of 50 mg/kg/day fenofibrate +10 μg/kg/day CGS23425 for a period of 15 days. Cholesterol lowering was measured on treatment days 6, 8, 10, 13, 14, and 15.

Serum total cholesterol = Serum total cholesterol lowering in rats dosed 9 days with CGS23425 in diet with and without fenofibrate
Description: Male Sprague-Dawley rats (wt 125-150 g, 10 per group) were acclimated for one week with a normal chow (Purina #5001 powder) and had free access to drinking water. The animals, with increased weight to about 200 to 250 grams, were dosed 9 days with various doses of CGS23425 (0, 0.005, 0.05 and 0.5 ppm in diet, where total diet consumption was about 10 to 15 grams per day) with and without the presence of 25 mg/kg of body weight of fenofibrate given via oral gavage once a day. After the dosing period, the animals were fasted for 18 hours and euthanized and the blood was withdrawn via cardiac puncture.

SMILES	Serum cholesterol lowering in dogs (% reduction) (Serum cholesterol; CGS23425 10 μg/kg/day alone, treatment day 6)	Serum cholesterol lowering in dogs (% reduction) (Serum cholesterol; CGS23425 10 μg/kg/day alone, treatment day 8)	Serum cholesterol lowering in dogs (% reduction) (Serum cholesterol; CGS23425 10 μg/kg/day alone, treatment day 10)	Serum cholesterol lowering in dogs (% reduction) (Serum cholesterol; CGS23425 10 μg/kg/day alone, treatment day 13)	Serum cholesterol lowering in dogs (% reduction) (Serum cholesterol; CGS23425 10 μg/kg/day alone, treatment day 14)	Serum cholesterol lowering in dogs (% reduction) (Serum cholesterol; CGS23425 10 μg/kg/day alone, treatment day 15)	Serum cholesterol lowering in rats (% reduction) (Serum total cholesterol; CGS23425 0.005 ppm in diet alone (fenofibrate 0 mg/kg))	Serum cholesterol lowering in rats (% reduction) (Serum total cholesterol; CGS23425 0.05 ppm in diet alone (fenofibrate 0 mg/kg))	Serum cholesterol lowering in rats (% reduction) (Serum total cholesterol; CGS23425 0.5 ppm in diet alone (fenofibrate 0 mg/kg))	Serum cholesterol lowering in dogs (% reduction) (Serum cholesterol; fenofibrate 50 mg/kg/day alone, treatment day 6)	Serum cholesterol lowering in dogs (% reduction) (Serum cholesterol; fenofibrate 50 mg/kg/day alone, treatment day 8)	Serum cholesterol lowering in dogs (% reduction) (Serum cholesterol; fenofibrate 50 mg/kg/day alone, treatment day 10)	Serum cholesterol lowering in dogs (% reduction) (Serum cholesterol; fenofibrate 50 mg/kg/day alone, treatment day 13)	Serum cholesterol lowering in dogs (% reduction) (Serum cholesterol; fenofibrate 50 mg/kg/day alone, treatment day 14)	Serum cholesterol lowering in dogs (% reduction) (Serum cholesterol; fenofibrate 50 mg/kg/day alone, treatment day 15)	Serum cholesterol lowering in rats (% reduction) (Serum total cholesterol; fenofibrate 25 mg/kg oral gavage once a day alone (CGS23425 0 ppm), fasted 18 hours)	Serum cholesterol lowering in rats (% reduction) (Serum total cholesterol; fenofibrate 25 mg/kg oral gavage once a day alone (CGS23425 0 ppm), fasted 18 hours, listed as fenofibrate)
Cc1cc(NC(=O)C(=O)O)cc(C)c1Oc1ccc(O)c(C(C)C)c1 [CGS23425, N-[3,5-dimethyl-4-(4′-hydroxy-3′-isopropylphenoxy)-phenyl]-oxamic acid]	13 ± 1.2 % reduction	15.4 ± 2.3 % reduction	18.4 ± 3.0 % reduction	22.9 ± 2.5 % reduction	21.1 ± 3.9 % reduction	24.3 ± 1.7 % reduction	4 ± 6 % reduction	9±4 % reduction	3 ± 7 % reduction								
CC(C)OC(=O)C(C)(C)Oc1ccc(C(=O)c2ccc(Cl)cc2)cc1 [Fenofibrate, fenofibrate]										0.1 ± 2.5 % reduction	3.5 ± 1.8 % reduction	8.6 ± 3.4 % reduction	12.1 ± 4.3 % reduction	12.4 ± 7.5 % reduction	14.3 ± 4.0 % reduction	12 ± 5 % reduction	12±5 % reduction
